Experimental data reported in patent US9708321B2, “Spiro-quinazolinone derivatives and their use as positive allosteric modulators of mGluR4” (Merck Patent GmbH, priority 2013, dated 2017).

Target: T1, hmGluR4 (Homo sapiens, UniProt Q14833)
T1 construct: host or cells: HEK293T
Experiment: HEK-293 mGluR4 cells cAMP assay with EC20 L-Glutamate (HTRF)
Format: cell-based
Settings: positive allosteric activity at EC20 L-Glutamate, 10 μM Forskolin, HEK293T mGluR4 cells, cAMP HTRF; read-out: hrmGluR4/HEK293T-hmGluR4 (EC50)
Procedure, shortened: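 PAM mode in mGluR4 HEK293T suspension cells, glutamine-starved overnight; 10 μM forskolin (final) with EC20 L-glutamate (2.3 μM), 2000 cells/well, 30 min at 37 °C. cAMP measured by two-step HTRF after 60 min at room temperature. Basal control EC20 glutamate; EC100 400 μM glutamate (2×).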

T1 sequence (Q14833 33-912): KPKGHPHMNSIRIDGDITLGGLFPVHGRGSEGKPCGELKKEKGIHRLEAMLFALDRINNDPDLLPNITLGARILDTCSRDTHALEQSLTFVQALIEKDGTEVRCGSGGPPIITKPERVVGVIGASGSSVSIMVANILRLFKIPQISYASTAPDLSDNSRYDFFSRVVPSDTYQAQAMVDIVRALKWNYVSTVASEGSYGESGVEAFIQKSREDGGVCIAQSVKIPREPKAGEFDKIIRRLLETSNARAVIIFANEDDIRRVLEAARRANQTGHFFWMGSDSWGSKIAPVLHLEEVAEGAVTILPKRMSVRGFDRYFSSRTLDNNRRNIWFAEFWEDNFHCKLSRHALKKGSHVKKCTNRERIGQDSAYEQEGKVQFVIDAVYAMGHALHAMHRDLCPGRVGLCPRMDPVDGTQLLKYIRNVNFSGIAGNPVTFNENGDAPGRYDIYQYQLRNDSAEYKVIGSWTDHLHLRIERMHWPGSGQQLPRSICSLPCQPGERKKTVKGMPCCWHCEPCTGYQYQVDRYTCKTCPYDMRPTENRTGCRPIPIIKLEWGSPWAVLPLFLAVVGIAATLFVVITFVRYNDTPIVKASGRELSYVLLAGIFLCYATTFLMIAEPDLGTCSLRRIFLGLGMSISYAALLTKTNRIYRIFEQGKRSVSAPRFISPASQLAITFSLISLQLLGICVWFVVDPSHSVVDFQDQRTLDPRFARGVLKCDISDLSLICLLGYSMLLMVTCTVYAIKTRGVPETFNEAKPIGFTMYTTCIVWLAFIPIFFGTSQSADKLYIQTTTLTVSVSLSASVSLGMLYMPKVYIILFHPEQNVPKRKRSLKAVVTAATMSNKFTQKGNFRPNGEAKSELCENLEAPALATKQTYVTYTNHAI

First: Cc1cc2cc(N3C(=O)c4ccc(Br)cc4NC34CCN(Cc3ccc(F)c(F)c3)CC4)ccc2o1 [Compound 2, 7′-Bromo-1-(3,4-difluorobenzyl)-3′-(2-methylbenzofuran-5-yl)-1′H-spiro[piperidine-4,2′-quinazolin]-4′(3′H)-one]
Second: O=C1c2ccc(Br)cc2NC2(CCN(Cc3ccc(F)c(F)c3)CC2)N1c1ccc(OC(F)(F)F)c(Cl)c1 [Compound 102, 7′-Bromo-3′-(3-chloro-4-(trifluoromethoxy)phenyl)-1-(3,4-difluorobenzyl)-1′H-spiro[piperidine-4,2′-quinazolin]-4′(3′H)-one]
The EC50 of the first is lower: under 1 µM for the first, 1 to 10 µM for the second. The first is the more potent here.

`COc1ccc(N2C(=O)c3ccccc3NC23CN(Cc2ccccc2C)C3)cc1` [Compound 94, 3′-(4-Methoxyphenyl)-1-(2-methylbenzyl)-1′H-spiro[azetidine-3,2′-quinazolin]-4′(3′H)-one] and `COc1ccc(N2C(=O)c3ccccc3NC23CN(Cc2cccc(F)c2)C3)cc1` [Compound 93, 1-(3-Fluorobenzyl)-3′-(4-methoxyphenyl)-1′H-spiro[azetidine-3,2′-quinazolin]-4′(3′H)-one] fall in the same range of EC50: 1 to 10 µM for the first, 1 to 10 µM for the second.

`COc1ccc(N2C(=O)c3ccc(Br)cc3OC23CCN(Cc2ccc(F)c(F)c2)CC3)cc1` [Compound 108, 7-Bromo-1′-(3,4-difluorobenzyl)-3-(4-methoxyphenyl)spiro[benzo[e][1,3]oxazine-2,4′-piperidin]-4(3H)-one] and `COc1ccc(N2C(=O)c3cc(O)ccc3NC23CCN(Cc2ccc(F)c(F)c2)CC3)cc1` [Compound 122, 1-(3,4-Difluorobenzyl)-6′-hydroxy-3′-(4-methoxyphenyl)-1′H-spiro[piperidine-4,2′-quinazolin]-4′(3′H)-one] fall in the same range of EC50: 1 to 10 µM for the first, 1 to 10 µM for the second.

`COc1ccc(N2C(=O)c3ccccc3NC23CCN(Cc2ccc(F)cc2)CC3)cc1` [Compound 114, 1-(4-Fluorobenzyl)-3′-(4-methoxyphenyl)-1′H-spiro[piperidine-4,2′-quinazolin]-4′(3′H)-one] and `COc1ccc(N2C(=O)c3ccccc3NC23CN(Cc2ccc(F)cc2)C3)cc1` [Compound 101, 1-(4-Fluorobenzyl)-3′-(4-methoxyphenyl)-1′H-spiro[azetidine-3,2′-quinazolin]-4′(3′H)-one] fall in the same range of EC50: 1 to 10 µM for the first, 1 to 10 µM for the second.

`CCOC(=O)c1ccc2c(c1)NC1(CN(Cc3ccccc3Cl)C1)N(c1ccc(OC(F)(F)F)cc1)C2=O` [Compound 18, Ethyl 1-(2-chlorobenzyl)-4′-oxo-3′-(4-(trifluoromethoxy)phenyl)-3′,4′-dihydro-1′H-spiro[azetidine-3,2′-quinazoline]-7′-carboxylate] and `COc1ccc(N2C(=O)c3ccc(Cl)cc3NC23CCN(Cc2ccccc2Cl)CC3)cc1` [Compound 62, 7′-Chloro-1-(2-chlorobenzyl)-3′-(4-methoxyphenyl)-1′H-spiro[piperidine-4,2′-quinazolin]-4′(3′H)-one] cannot be ordered by EC50: under 1 µM for the first, under 1 µM for the second.

`COc1ccc(N2C(=O)c3ccccc3NC23CCN(Cc2cccc(C(F)(F)F)c2)CC3)cc1` [Compound 96, 3′-(4-Methoxyphenyl)-1-(3-(trifluoromethyl)benzyl)-1′H-spiro[piperidine-4,2′-quinazolin]-4′(3′H)-one] and `COc1ccc(N2C(=O)c3ccccc3NC23CCN(Cc2cccc(Cl)c2)CC3)cc1` [Compound 104, 1-(3-Chlorobenzyl)-3′-(4-methoxyphenyl)-1′H-spiro[piperidine-4,2′-quinazolin]-4′(3′H)-one] fall in the same range of EC50: 1 to 10 µM for the first, 1 to 10 µM for the second.

`CC(c1ccc(F)c(F)c1)N1CCC2(CC1)Nc1cc(Br)ccc1C(=O)N2c1ccc(OC(F)(F)F)cc1` (centres unmarked) [Compound 8, 7′-Bromo-1-(1-(3,4-difluorophenyl)ethyl)-3′-(4-(trifluoromethoxy)phenyl)-1′H-spiro[piperidine-4,2′-quinazolin]-4′(3′H)-one] and `CCC(c1ccc(F)c(F)c1)N1CCC2(CC1)Nc1cc(Br)ccc1C(=O)N2c1ccc(OC(F)(F)F)cc1` (centres unmarked) [Compound 22, 7′-Bromo-1-(1-(3,4-difluorophenyl)propyl)-3′-(4-(trifluoromethoxy)phenyl)-1′H-spiro[piperidine-4,2′-quinazolin]-4′(3′H)-one] cannot be ordered by EC50: under 1 µM for the first, under 1 µM for the second.

`CCC(c1ccccc1)N1CCC2(CC1)Nc1cc(Br)ccc1C(=O)N2c1ccc(OC(F)(F)F)cc1` (centres unmarked) [Compound 48, 7′-Bromo-1-(1-phenylpropyl)-3′-(4-(trifluoromethoxy)phenyl)-1′H-spiro[piperidine-4,2′-quinazolin]-4′(3′H)-one] and `O=C1c2ccc(Br)cc2NC2(CCN(C(c3ccc(F)c(F)c3)C(F)(F)F)CC2)N1c1ccc(OC(F)(F)F)cc1` (centres unmarked) [Compound 107, 7′-Bromo-1-(1-(3,4-difluorophenyl)-2,2,2-trifluoroethyl)-3′-(4-(trifluoromethoxy)phenyl)-1′H-spiro[piperidine-4,2′-quinazolin]-4′(3′H)-one] cannot be ordered by EC50: under 1 µM for the first, under 1 µM for the second.

`COc1ccc(N2C(=O)c3ccccc3NC23CCN(Cc2ccccc2Cl)CC3)cc1` [Compound 111, 1-(2-Chlorobenzyl)-3′-(4-methoxyphenyl)-1′H-spiro[piperidine-4,2′-quinazolin]-4′(3′H)-one] and `COc1ccc(N2C(=O)c3ccccc3NC23CCN(Cc2cc(C)cc(C)c2)CC3)cc1` [Compound 105, 1-(3,5-Dimethylbenzyl)-3′-(4-methoxyphenyl)-1′H-spiro[piperidine-4,2′-quinazolin]-4′(3′H)-one] fall in the same range of EC50: 1 to 10 µM for the first, 1 to 10 µM for the second.

`COc1ccc(N2C(=O)c3ccccc3NC23CN(Cc2ccc(Cl)cc2)C3)cc1` [Compound 85, 1-(4-Chlorobenzyl)-3′-(4-methoxyphenyl)-1′H-spiro[azetidine-3,2′-quinazolin]-4′(3′H)-one] and `CCc1ccc(CN2CC3(C2)Nc2ccccc2C(=O)N3c2ccc(OC)cc2)cc1` [Compound 112, 1-(4-Ethylbenzyl)-3′-(4-methoxyphenyl)-1′H-spiro[azetidine-3,2′-quinazolin]-4′(3′H)-one] fall in the same range of EC50: 1 to 10 µM for the first, 1 to 10 µM for the second.

`COc1ccc(N2C(=O)c3ccc(Cl)cc3NC23CCN(Cc2cccc(Cl)c2)CC3)cc1` [Compound 38, 7′-Chloro-1-(3-chlorobenzyl)-3′-(4-methoxyphenyl)-1′H-spiro[piperidine-4,2′-quinazolin]-4′(3′H)-one] and `COc1ccc(N2C(=O)c3ccc(OC)cc3NC23CCN(Cc2ccc(F)c(F)c2)CC3)cc1` [Compound 39, 1-(3,4-Difluorobenzyl)-7′-methoxy-3′-(4-methoxyphenyl)-1′H-spiro[piperidine-4,2′-quinazolin]-4′(3′H)-one] cannot be ordered by EC50: under 1 µM for the first, under 1 µM for the second.

`CSc1ccc(N2C(=O)c3ccc(-c4ccco4)cc3NC23CCN(Cc2ccc(F)c(F)c2)CC3)cc1` [Compound 41, 1-(3,4-Difluorobenzyl)-7′-(furan-2-yl)-3′-(4-(methylthio)phenyl)-1′H-spiro[piperidine-4,2′-quinazolin]-4′(3′H)-one] and `COc1ccc(N2C(=O)c3ccc(-c4cncs4)cc3NC23CCN(Cc2ccc(F)c(F)c2)CC3)cc1` [Compound 45, 1-(3,4-Difluorobenzyl)-3′-(4-methoxyphenyl)-7′-(thiazol-5-yl)-1′H-spiro[piperidine-4,2′-quinazolin]-4′(3′H)-one] cannot be ordered by EC50: under 1 µM for the first, under 1 µM for the second.

`COC(=O)c1ccc2c(c1)NC1(CCN(Cc3ccc(F)c(F)c3)CC1)N(c1ccc(OC(F)(F)F)cc1)C2=O` [Compound 36, Methyl 1-(3,4-difluorobenzyl)-4′-oxo-3′-(4-(trifluoromethoxy)phenyl)-3′,4′-dihydro-1′H-spiro[piperidine-4,2′-quinazoline]-7′-carboxylate] and `COc1ccc(N2C(=O)c3ccc(C(=O)OC(C)C)cc3NC23CCN(Cc2ccc(F)c(F)c2)CC3)cc1` [Compound 3, Isopropyl 1-(3,4-difluorobenzyl)-3′-(4-methoxyphenyl)-4′-oxo-3′,4′-dihydro-1′H-spiro[piperidine-4,2′-quinazoline]-7′-carboxylate] cannot be ordered by EC50: under 1 µM for the first, under 1 µM for the second.

First: CN(C)Cc1ccc(-c2ccc3c(c2)NC2(CCN(Cc4ccc(F)c(F)c4)CC2)N(c2ccc(OC(F)(F)F)cc2)C3=O)o1 [Compound 74, 1-(3,4-Difluorobenzyl)-7′-(5-((dimethylamino)methyl)furan-2-yl)-3′-(4-(trifluoromethoxy)phenyl)-1′H-spiro[piperidine-4,2′-quinazolin]-4′(3′H)-one]
Second: O=C1c2ccc(F)cc2NC2(CCN(Cc3ccc(F)c(F)c3)CC2)N1c1ccc(Cl)cc1 [Compound 64, 3′-(4-Chlorophenyl)-1-(3,4-difluorobenzyl)-7′-fluoro-1′H-spiro[piperidine-4,2′-quinazolin]-4′(3′H)-one]
The EC50 of the first is higher: 1 to 10 µM for the first, under 1 µM for the second.

`O=C1c2ccc(F)cc2NC2(CN(C(c3ccc(F)c(F)c3)C(F)(F)F)C2)N1c1ccc(OC(F)(F)F)cc1` (centres unmarked) [Compound 78, 1-(1-(3,4-Difluorophenyl)-2,2,2-trifluoroethyl)-7′-fluoro-3′-(4-(trifluoromethoxy)phenyl)-1′H-spiro[azetidine-3,2′-quinazolin]-4′(3′H)-one] gave an EC50 of 1 to 10 µM.
